Experimental data as given in patent publication US6682897B1, “Peptides derived from human heat protein 60 for treatment of diabetes, compositions, methods and kits” (Yeda Research and Development Co. Ltd., priority 1995, dated 2004).
“Also recorded” adds a separate entry of the source. Where no end group is shown, it is not given here.

Key:
female NOD mice = assay: Peptide treatment of 10-week old NOD mice, development of diabetes (Example 4, FIG. 4); type: in vivo; conditions: single s.c. injection in IFA at 10 weeks, observed through 8 months of age, vs IFA alone
Protocol: FIG. 4 is a graph showing the effect of peptide administration on diabetes. Groups of 10-20 NOD mice were treated at 10 weeks of age with 100 μg of mouse p12, p277, p35-GAD or MT-p278 in IFA, or IFA alone. The mice were bled monthly and followed for the onset of hyperglycemia.
(iv) Treatment and follow-up. Peptides, […], in PBS, were emulsified with an equal volume of IFA and injected subcutaneously into 10-week-old NOD females as described (Elias and Cohen, 1995). Control mice received an equal volume of PBS emulsified in IFA. The mice were monitored monthly for non-fasting blood glucose at 10am using the Blood Glucose Sensor (MediSense. Inc., Waltham, Mass.). Mice with a blood glucose greater than 11.1 mmol/L were considered to be diabetic; this concentration of glucose was greater than 3 standard deviations above the mean blood glucose concentration measured in non-diabetic mice (Elias and Cohen, 1995). Histological examination of the islets of the pancreas was done on sections stained with hematoxylin and eosin. The sections were scored independently by two observers who both were unaware of the identity of the groups. The chi square test was used to ascertain the statistical differences between the various treatments.
Following a protocol shown to be effective with mouse p277(Elias et al., 1991; Elias and Cohen, 1994; Elias and Cohen, 1995), groups of 10-week old female NOD mice were treatedby a single subcutaneous injection of each peptide ([…]) emulsified in IFA.

draining lymph nodes = assay: T-cell proliferative responses of NOD mice to peptides (Example 4, FIG. 3); type: cell-based; conditions: NOD mice immunized with 25 μg peptide in IFA, lymph nodes 10 days later, 20 μg/ml
Protocol: FIG. 3 is a graph showing T-cell proliferative responses of NOD mice to peptides. Groups of three NOD mice were […] with peptides mouse p12, mouse p277, GAD-p35 and MT-p278 in IFA each at a dose of 25 μg in IFA. The draining lymph nodes were removed 10 days later and assayed for proliferative responses to the corresponding peptide at the concentrations of 5, 10, 20, and 50 μg/ml. The stimulation at the optimal concentration of 20 μg/ml is shown. The following ranges of cpm were obtained in medium controls: mouse p12, 881; mouse p277, 1243; MT-p278, 698 and GAD-p35 1430. Peptide mouse p38 is a peptide derived from mouse hsp60 (556-573), which has no sequence homology with the tested peptides and serves as a negative control of specificity. […] Each assay was done in triplicates for which the SD values are indicated by the bars. There was no cross-reactivity between the peptides (not shown).
(iii) T-Cell proliferation to peptides. Mice. Nine week old NOD mice or mice of other strains were immunized in the hind foot pads with 0.1 ml of an emulsion containing 25 μg peptide in complete Freund's adjuvant (CFA; Difco, Detroit, Mich.) mixed with an equal volume of phosphate-buffered saline (PBS). The draining popliteal lymph nodes were removed 10 days later and suspensions of lymphocytes in triplicate cultures were tested for proliferation in the presence of the various peptides (5 μg/ml) using the incorporation of [^3H]-thymidine as described (Elias et al., 1991). The results are shown as the stimulation index (SI): the ratio of the mean cpm in the presence of the test peptide to the mean cpm of control cultures without the peptide. Standard errors were always less than 10% of the means.
Spontaneous T cell responses in pre-diabetic NOD mice were detected to the mouse p277 peptide (Elias et al., 1991; Birk et al., 1996) and to larger fragments of the mouse hsp60 molecule that contained the mouse p277 sequence (Birk et al., 1996). […] Other peptides immunogenic for NOD mice are the MT-p278 peptide (residues 458-474 in the Mycobacterial hsp60 molecule), and GAD-p35 (residues 524-543 in the GAD65 molecule).

[1] = tested on: serum antibodies of the IgG1, IgG2a and IgG2b isotypes; assay: Serum anti-peptide antibody isotypes by ELISA in peptide-treated NOD mice (FIG. 5); type: in vivo; conditions: for antibody titers of the IgG1 and IgG2b isotypes: peptide-treated NOD mice, sera diluted 1:50, ELISA
Protocol: FIGS. 5A-5D show the IgG1, IgG2a and IgG2b antibody isotypes in response to peptide treatment. Mice were treated as described in the legend to FIG. 4. Individual samples were analyzed for antibodies to mouse p12 A; p277 B; GAD-p35 C; and MT-p278 D, of the IgG1, IgG2a and IgG2b isotypes. Similar effects were obtained in two experiments. The results are presented as the absorbance at 405 nm (OD) of 10 individual mice in each group. The level of significance of the prevalence of IgG1 and IgG2b antibodies in groups A and B compared to C and D is P<0.001. The differences between the levels of IgG1 and IgG2b antibodies compared to the IgG2a antibodies in groups A and B were significant (P<0.001). There was no cross-reactivity between the antibodies (not shown).
(v) Serum Antibodies. Mice were bled monthly to detect antibody responses. The ELISA assay was done as described (Elias et al., 1991). Briefly, flat bottom Maxi-sorb plates (Nunc, Roskilde, Denmark) were coated, for the detection of anti-peptide antibodies, with […] of peptide in PBS, at a concentration of […] for 2 h at room temperature followed by over night incubation at 4° C. After incubation with peptide, the plates were washed and blocked for 2 h at 37° C. with 7% BSA (Sigma) in PBS. Sera were diluted 1:50 then added for 2 h at 37° C., followed by incubation for 2 h with […] of goat anti-mouse IgG (gamma chain Fc specific) conjugated to alkaline phosphatase (Jackson, Philadelphia, Pa.). After washing, the plates were incubated with the substrate, diethanolamine (Sigma) and read using an ELISA reader at 405 nm.
Successful treatment of STZ-induced diabetes with mouse peptide p277 was associated with the appearance of anti-peptide antibodies predominantly of the IgG1 and IgG2b isotypes (Elias and Cohen, 1996). The peptide-treated NOD mice for their serum antibodies was therefore examined. […] Thus, effectiveness in inhibiting diabetes was associated with the induction of an antibody response mainly of the IgG1 and IgG2b isotypes.

[2] = tested on: spleens of female NOD mice; assay: Spontaneous T-cell responses in spleens of female NOD mice (longitudinal study); type: cell-based; conditions: female NOD mice at ages 3-16 weeks
peripheral blood T-cells = assay: Peripheral blood T-cell proliferation of IDDM patients and healthy controls to hsp60 and hsp60 synthetic peptides (Example 5); type: cell-based, human; conditions: 26 newly diagnosed IDDM patients; peptides 20 μg/ml, 7 days
NOD mice = conditions: s.c. in IFA; young NOD mice or 12-17 week old NOD mice with advanced insulitis; cited from earlier work
C57BL/KsJ mice = conditions: mice that had received earlier a very low dose of STZ; cited from earlier work

Substance | development of diabetes (female NOD mice) | immunogenicity (T-cell proliferative response) (draining lymph nodes) | antibody titers of the IgG1 and IgG2b isotypes [1] | spontaneous T-cell responses [2] | T-cell proliferative response of IDDM patients (S.I. 2 or greater positive) (peripheral blood T-cells) | disease progression (NOD mice) | development of autoimmune diabetes (C57BL/KsJ mice) | mice that made specific IgG1 antibodies ([1]; 10 individual mice per group, ELISA) | titers of IgG2b antibodies ([1]; compared with mouse p12 and mouse p277 groups)
mouse p277: mouse variant of p277, mouse hsp60 437-460; differs from human by 1 amino acid (VLGGGCALLRCIPALDSLKPANED; UniProt P63038 437-460, looked up, fragment) | effective in inhibiting the development of diabetes | strong response | effective in inducing strong antibody titers | spontaneous responses were detected | – | – | – | – | –
KAPGFGDNRKNQLKDMAIAT [p21, human hsp60 residues 301-320] | – | – | – | – | no IDDM patients responded | – | – | – | –
VLGGGCALLRCIPALDSLTPANED (cysteine pairing not given here) [p277, human hsp60 residues 437-460] | significantly protected | – | – | – | – | arrest of disease progression | aborted the development of autoimmune diabetes | – | –
LVIIAEDVDGEALSTLVLNR [p19, human hsp60 residues 271-290] | – | – | – | – | no IDDM patients responded | – | – | – | –
EEIAQVATISANGDKDIGNI [mouse p12] | significantly protected; also recorded: effective in inhibiting the development of diabetes | strong response | effective in inducing strong antibody titers | no spontaneous responses | – | – | – | – | –
EGDEATGANIVKVALEA [MT-p278] | no different than was treatment with IFA alone | as strongly immunogenic as are mouse p277 and mouse p12 | did not respond as strongly | spontaneous responses were detected | – | – | – | only two of the ten | significantly lower titers
